According to patent publication US10774053B2, “HIV protease inhibitors” (Gilead Sciences, Inc., priority 2017, dated 2020):
Read-outs that look alike come from different tables or passages of the source.

How the values were obtained:
[1] = system: HIV-1 (IIIB) in MT-4 cells; assay: microbe, parasite or virus in culture; type: cell-based
[2] = Liver microsomal stability, human liver microsomes; settings: human, liver microsomes
Procedure: Liver Microsomal Stability Protocol
Test compounds and one control compound (verapamil) were tested in 3 different species in duplicate sets.
Test compound concentration: 1 uM; Protein concentration: 0.5 mg/mL (for dog, rat, and human liver microsomes); Cofactor: NADPH-Regenerating system (NRS) solution; Time-points: 2, 12, 25, 45, and 65 minutes.
Reaction Composition (in Each Incubation Well) Contains:
At an incubation temperature of 37° C., the reaction was started with addition of NADPH Regeneration System, at each time point, 25 uL of the reaction mixture was removed and added to a plate with 225 uL quenching solution (50% MeOH, 25% ACN, 25% H2O, and 200 nM labetalol as internal standard). After plates were vortexed, they were centrifuged for 30 minutes to remove proteins. About 100 μL supernatant was removed to a new plate and diluted with 150 μL water. About 20 μL of the mixture was injected into LC/MS/MS system to monitor the compound's response. In vitro measured t1/2 was used to calculate Clint values.

recombinant human BACE-1 = recombinant human BACE-1 (Homo sapiens (Human), UniProt P56817); assay: Beta-secretase (BACE) inhibition assay, fluorogenic enzymatic assay; type: biochemical
Procedure: Beta-Secretase (BACE) Inhibition Assay
Inhibitory potency against β-secretase (BACE) was measured using an enzymatic assay with a fluorogenic readout. 50 nM of recombinant human BACE-1 (R&D Systems) and test compound at one of various concentrations were added to a reaction buffer containing 20 mM sodium acetate at pH 4.8, with 0.06% Triton X-100, and 1% DMSO. […] The total volume of the assay solution was 100 μL. […] The slopes of the progress curves were the measure of reaction rates. Reaction rates were plotted as a function of inhibitor concentration, and the data were fit with a four-parameter logistic fit using Graphpad PRISM software to yield IC50 values.

recombinant HIV protease = recombinant HIV protease (Human immunodeficiency virus type 1 group M subtype B (isolate HXB2) (HIV-1), UniProt P04585); assay: biochemical; type: biochemical
Procedure: HIV Protease Enzyme Inhibition (PI) Activity
Inhibitor potency against HIV protease was measured using an enzymatic assay with a fluorogenic readout. To a reaction buffer containing 100 mM ammonium acetate at pH 5.3, 100 mM NaCl, 1 mM EDTA, 1 mM DTT, 0.25 mg/mL BSA and 1% DMSO were added 10 nM of recombinant HIV protease (concentration based on protein monomer) and test compound at one of various concentrations. […] The total volume of the assay solution was 100 μL. […] The slopes of the progress curves were the measure of reaction rates. Reaction rates were plotted as a function of inhibitor concentration, and the data were fit with a four-parameter logistic fit using Graphpad PRISM software to yield IC50 values.

[3] = system: single replication cycle recombinant virus containing the protease and reverse transcriptase coding regions of HIV-1 from a patient blood sample; type: cell-based
Text: Resistance testing was done by Monogram Biosciences using their proprietary PhenoSense HIV assay.

[4] = Human immunodeficiency virus 1, IIIB, MT4, MT-4 cells, HIV-1, read-out: MT4 EC50
[5] = MT-4 cells, HIV-1, read-out: MT4 EC50

Sequence of recombinant human BACE-1 (P56817 46-501): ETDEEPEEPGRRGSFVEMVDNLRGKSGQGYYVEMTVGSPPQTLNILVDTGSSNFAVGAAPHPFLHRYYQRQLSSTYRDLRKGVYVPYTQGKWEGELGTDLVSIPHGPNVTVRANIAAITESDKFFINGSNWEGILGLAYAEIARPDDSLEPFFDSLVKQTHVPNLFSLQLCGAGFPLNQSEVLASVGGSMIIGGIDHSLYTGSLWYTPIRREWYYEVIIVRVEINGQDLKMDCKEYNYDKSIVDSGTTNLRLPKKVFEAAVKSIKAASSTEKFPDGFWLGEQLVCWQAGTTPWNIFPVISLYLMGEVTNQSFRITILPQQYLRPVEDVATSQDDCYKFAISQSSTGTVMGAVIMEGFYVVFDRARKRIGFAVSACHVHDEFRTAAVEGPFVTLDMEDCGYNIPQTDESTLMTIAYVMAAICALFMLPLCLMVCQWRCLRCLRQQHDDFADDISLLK

Row | SMILES | EC50 [1, 4] | half-life at 1 uM [2] | IC50 (recombinant human BACE-1) | further results
1 | CC(C)(C)C[C@]1(c2ccc(-c3cnn(C(F)F)c3)cc2)NC(=N)N([C@H](COC(=O)NC(C)(C)C(F)(F)F)c2ccc(Cl)c(-n3cncn3)c2)C1=O [Compound 242] | 6.83 nM | ≥ 395 min | > 100 µM | 
2 | CC(C)(C)C[C@]1(c2ccc(-c3ccnn3C(F)F)cc2)NC(=N)N([C@H](COC(=O)NC2(C(F)(F)F)CC2)c2ccc(Cl)c(-n3ncnc3C(F)F)c2)C1=O [Compound 212] |  |  |  | EC50 [1, 5]: 11.9 nM; IC50 (recombinant human BACE-1; 50 nM recombinant human BACE-1, pH 4.8, read-out: BACE IC50): > 100 µM
3 | CC(C)(C)C[C@]1(c2ccc(-c3ccn(C4CC4)n3)cc2)NC(=N)N([C@H](COC(=O)NC2(C(F)(F)F)CC2)c2ccc(Cl)c(-n3ncnc3C(F)F)c2)C1=O [Compound 214] | 11.5 nM |  |  | IC50 (recombinant HIV protease): 3 nM
4 | Cn1c(=O)ccc2cc([C@@]3(CC(C)(C)C)NC(=N)N([C@H](COC(=O)NC4(C(F)(F)F)CC4)c4ccc(Cl)c(-n5ncnc5C(F)F)c4)C3=O)ccc21 [Compound 349] |  |  | > 100 µM | EC50 ([1]; Human immunodeficiency virus 1, IIIB, MT4, read-out: MT4 EC50 (nM)): 36 nM
5 | CC1(NC(=O)OC[C@H](c2ccc(Cl)c(-c3ncn[nH]3)c2)N2C(=N)N[C@](CC(C)(C)C(F)(F)F)(c3ccc(-c4cnn(C(F)F)c4)cc3)C2=O)CC1 [Compound 32] | 69.2 nM |  | > 100 µM | 
6 | CC(C)(C)C[C@]1(c2ccc(-c3cnn(C(F)F)c3)cc2)NC(=N)N([C@H](COC(=O)NC2(C(F)(F)F)CC2)c2ccc(Cl)c(-n3cncn3)c2)C1=O [Compound 236] | 10.6 nM | ≥ 395 min | > 100 µM | 
7 | CC(C)(C)C[C@]1(c2ccc(-c3cnn(C(F)F)c3)cc2)NC(=N)N([C@H](COC(=O)NC(C)(C)C(F)F)c2ccc(Cl)c(-n3ncnc3C(F)F)c2)C1=O [Compound 185] | 12.6 nM |  | > 100 µM | 
8 | CC(C)(C)C[C@]1(c2ccc(-c3cnn(C(F)F)c3)cc2)NC(=N)N([C@H](COC(=O)N[C@@H]2CC2(F)F)c2ccc(Cl)c(-n3ncnc3C(F)F)c2)C1=O (single isomer, unassigned) [Compound 335] |  |  | > 100 µM | EC50 [1, 5]: 5.59 nM
9 | C[C@H](NC(=O)OC[C@H](c1ccc(Cl)c(-n2ncnc2C(F)F)c1)N1C(=N)N[C@](CC(C)(C)C)(c2ccc(-c3cnn(C(F)F)c3)cc2)C1=O)C(F)(F)F [Compound 311] | 7.01 nM | ≥ 395 min | > 100 µM | 
10 | CC(C)(C)C[C@]1(c2ccc(-c3cnn(C(F)F)c3)cc2F)NC(=N)N([C@H](COC(=O)NC2(C(F)(F)F)CC2)c2ccc(Cl)c(-n3ncnc3C(F)F)c2)C1=O [Compound 195] | 10.5 nM | ≥ 395 min | > 100 µM | 
11 | CC(C)(C)C[C@]1(c2ccc(-c3cnn(C4CC4)c3)cc2)NC(=N)N([C@H](COC(=O)NC2(C(F)(F)F)CC2)c2ccc(Cl)c(-c3ncnn3C(F)F)c2)C1=O [Compound 164] |  |  |  | EC50 [1, 5]: 16.5 nM; IC50 (recombinant HIV protease; recombinant HIV protease, fluorogenic enzymatic assay, read-out: HIV PI IC50): 2.6 nM
12 | C[C@H](C(=O)NC[C@H](c1ccc(Cl)c(-n2ncnc2C(F)F)c1)N1C(=N)N[C@](CC(C)(C)C(F)(F)F)(c2ccc(-c3cnn(C4CC4)n3)cc2)C1=O)C(F)(F)F [Compound 389] | 12.2 nM | ≥ 395 min | > 100 µM | 
13 | CC(C)(C[C@]1(c2ccc(-c3cnn(C4CC4)n3)cc2)NC(=N)N([C@H](COC(=O)NC2(C(F)(F)F)CC2)c2ccc(Cl)c(-n3ncnc3C(F)F)c2)C1=O)C(F)(F)F [Compound 270] | 19.1 nM | ≥ 395 min | > 100 µM | 
14 | CC(C)(C)C[C@]1(c2ccc(-c3cnn(C(F)F)c3)cc2)NC(=N)N([C@H](COC(=O)NCC(F)(F)F)c2ccc(Cl)c(-n3ncnc3C(F)F)c2)C1=O [Compound 218] | 9.89 nM |  | > 100 µM | 
15 | CC(C)(C)C[C@]1(c2ccc(-c3cnn(C(F)F)c3)cc2)NC(=N)N([C@H](COC(=O)NC2(C(F)(F)F)CC2)c2ccc(Cl)c(-n3ncnc3C(F)F)c2)C1=O [Compound 177] | 9.81 nM |  | > 100 µM | 
16 | CC(C)(F)C[C@]1(c2ccc(-c3cnn(C(F)F)c3)cc2)NC(=N)N([C@H](COC(=O)NC2(C(F)(F)F)CC2)c2ccc(Cl)c(-n3ncnc3C(F)F)c2)C1=O [Compound 194] | 14.8 nM | ≥ 395 min | > 100 µM | 
17 | CC(C)(C[C@]1(c2ccc(-c3cnn(C4CC4)n3)cc2)NC(=N)N([C@H](COC(=O)NC2(C(F)F)CC2)c2ccc(Cl)c(-c3ncnn3C(F)F)c2)C1=O)C(F)(F)F [Compound 155] | 9.87 nM | ≥ 395 min | > 100 µM | 
18 | CC(C)(C)C[C@]1(c2ccc(-c3cnn(C(F)F)c3)cc2)NC(=N)N([C@H](COC(=O)NC(C)(C)C(F)F)c2ccc(Cl)c(-c3ncnn3C(F)F)c2)C1=O [Compound 90] | 12.2 nM |  | > 100 µM | 
19 | CC(C)(C)C[C@]1(c2ccc(-c3cnn(C(F)F)c3)cc2)NC(=N)N([C@H](COC(=O)NC2(C(F)(F)F)CC2)c2ccc(Cl)c(-c3ncnn3C(F)F)c2)C1=O [Compound 113] | 7.75 nM |  | > 100 µM | 
20 | CC(C)(C)C[C@]1(c2ccc(-c3cnn(C4CC4)n3)cc2)NC(=N)N([C@H](COC(=O)NC2(C(F)(F)F)CC2)c2ccc(Cl)c(-c3ncnn3C(F)F)c2)C1=O [Compound 146] | 10.3 nM | ≥ 395 min | > 100 µM | 
21 | CC(C)(F)C[C@]1(c2ccc(-c3cnn(C4CC4)c3)cc2)NC(=N)N([C@H](COC(=O)NC2(C(F)(F)F)CC2)c2ccc(Cl)c(-c3ncnn3C(F)F)c2)C1=O [Compound 131] | 20.8 nM | ≥ 395 min | > 100 µM | 
22 | CC(C)(C)C[C@]1(c2ccc(-c3cnn(C4CC4)n3)cc2)NC(=N)N([C@H](COC(=O)NC2(C(F)(F)F)CC2)c2ccc(Cl)c(-n3ncnc3C(F)F)c2)C1=O [Compound 223] | 13.1 nM | ≥ 395 min | > 100 µM | 
23 | COC(=O)N[C@H](C(=O)N[C@@H](Cc1ccccc1)[C@@H](O)CN(Cc1ccc(-c2ccccn2)cc1)NC(=O)[C@@H](NC(=O)OC)C(C)(C)C)C(C)(C)C [atazanavir, methyl N-[(2S)-1-[2-[(2S,3S)-2-hydroxy-3-[[(2S)-2-(methoxycarbonylamino)-3,3-dimethylbutanoyl]amino]-4-phenylbutyl]-2-[(4-pyridin-2-ylphenyl)methyl]hydrazinyl]-3,3-dimethyl-1-oxobutan-2-yl]carbamate] |  | 26 to 107 min |  | Fold change in EC50 ([3]; Resistance mutations D30N L33F N88D L90M): 5.27; Fold change in EC50 ([3]; Resistance mutations L10F M46I I47V I50V I54V G73S I84V L90M): 30.0; Fold change in EC50 ([3]; Resistance mutations L10F M46L I54V V82A I84V): >101; Fold change in EC50 ([3]; Resistance mutations L10F V32I M46I I47V I50V I54L I84V): 5.67; Fold change in EC50 ([3]; Resistance mutations L10I L33F G48V I50L I54V/I V82A): 87.0; Fold change in EC50 ([3]; Resistance mutations L10I L33F/L G48V G73S V82A): >101; Fold change in EC50 ([3]; Resistance mutations L10I M46I I50V): 1.99; Fold change in EC50 ([3]; Resistance mutations L10I V32I L33F M46L I54L I84V L89V): 97.0; Fold change in EC50 ([3]; Resistance mutations L10I V32I M46I I47V G48V I54M V82T L90M): 11.0; Fold change in EC50 ([3]; Resistance mutations L10I V32I M46I I47V I50V I54L L90M): 36.0; Fold change in EC50 ([3]; Resistance mutations L10V/L M46I I50L V82A): >101; Fold change in EC50 ([3]; Resistance mutations L33F M46I I50V L76V): 1.91
24 | CC(C)(C)C[C@]1(c2ccc(-c3cnn(S(C)(=O)=O)c3)cc2F)NC(=N)N([C@H](COC(=O)NC2(C(F)(F)F)CC2)c2ccc(Cl)c(-n3ncnc3C(F)F)c2)C1=O [Compound 286] | 9.61 nM |  | > 100 µM | 
25 | CC(C)(C[C@]1(c2ccc(-c3cnn(C4CC4)n3)cc2)NC(=N)N([C@H](COC(=O)NC2(C(F)(F)F)CC2)c2ccc(Cl)c(-c3ncnn3C(F)F)c2)C1=O)C(F)(F)F [Compound 152] | 13 nM | ≥ 395 min | > 100 µM | 
